Data published in the supplement of paper PMC10307832.

Columns and labels:
Test in all cases: relative viability (nuclei count vs DMSO), 5 days (fraction); higher = more cells survive
ChaGo-K-1 = system: ChaGo-K-1
How it was run: (§1)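 Nuclei were stained with Hoechst during a one-step fixation (final 0.05% Triton X-100, 1% formaldehyde, 1 ug/ml Hoechst) carried out 5 days after dosing, then counted on 4× images. The cells, lung cancer lines in 1536-well plates, had been dosed by pin tool the day after seeding with one drug alone or a fixed anchor-drug dose plus five library-drug doses (not always all listed) in √10 steps. Relative viability is the nuclei count in treated wells divided by that in vehicle wells, and each value is the median of duplicate plates.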

EMC-BAC-2 = system: EMC-BAC-2
How it was run: as §1

EPLC-272H = system: EPLC-272H
How it was run: as §1

H3255 = system: H3255
How it was run: as §1

HCC-44 = system: HCC-44
How it was run: as §1

HCC-827 = system: HCC-827
How it was run: as §1

LCLC-103H = system: LCLC-103H
How it was run: as §1

LCLC-97TM1 = system: LCLC-97TM1
How it was run: as §1

NCI-H1355 = system: NCI-H1355
How it was run: as §1

NCI-H1563 = system: NCI-H1563
How it was run: as §1

NCI-H1651 = system: NCI-H1651
How it was run: as §1

NCI-H1944 = system: NCI-H1944
How it was run: as §1

NCI-H1993 = system: NCI-H1993
How it was run: as §1

NCI-H2085 = system: NCI-H2085
How it was run: as §1

NCI-H2087 = system: NCI-H2087
How it was run: as §1

NCI-H23 = system: NCI-H23
How it was run: as §1

NCI-H2405 = system: NCI-H2405
How it was run: as §1

NCI-H322M = system: NCI-H322M
How it was run: as §1

NCI-H520 = system: NCI-H520
How it was run: as §1

NCI-H650 = system: NCI-H650
How it was run: as §1

SK-MES-1 = system: SK-MES-1
How it was run: as §1

UMC-11 = system: UMC-11
How it was run: as §1

SMILES: COc1cc(N2CCC(C(N)=O)CC2)ccc1Nc1nc(N)c(Cl)c(Nc2ccccc2S(=O)(=O)C(C)C)n1 [HG-5-88-01] + C[C@@H](Oc1cc(-c2cnn(C3CCNCC3)c2)cnc1N)c1c(Cl)ccc(F)c1Cl [Crizotinib] (partner 1 µM)
- relative viability (ChaGo-K-1; first compound 0.04 µM): 1.12
- relative viability (ChaGo-K-1; first compound 0.1265 µM): 1.14
- relative viability (ChaGo-K-1; first compound 0.4 µM): 1.03
- relative viability (ChaGo-K-1; first compound 1.265 µM): 0.888
- relative viability (ChaGo-K-1; first compound 4 µM): 0.787
- relative viability (EMC-BAC-2; first compound 0.04 µM): 0.776
- relative viability (EMC-BAC-2; first compound 0.1265 µM): 0.748
- relative viability (EMC-BAC-2; first compound 0.4 µM): 0.769
- relative viability (EMC-BAC-2; first compound 1.265 µM): 0.77
- relative viability (EMC-BAC-2; first compound 4 µM): 0.667
- relative viability (EPLC-272H; first compound 0.04 µM): 0.972
- relative viability (EPLC-272H; first compound 0.1265 µM): 0.909
- relative viability (EPLC-272H; first compound 0.4 µM): 0.964
- relative viability (EPLC-272H; first compound 1.265 µM): 0.704
- relative viability (EPLC-272H; first compound 4 µM): 0.0745
- relative viability (H3255; first compound 0.04 µM): 0.844
- relative viability (H3255; first compound 0.1265 µM): 0.949
- relative viability (H3255; first compound 0.4 µM): 0.833
- relative viability (H3255; first compound 4 µM): 0.308
- relative viability (HCC-44; first compound 0.04 µM): 0.777
- relative viability (HCC-44; first compound 0.1265 µM): 0.791
- relative viability (HCC-44; first compound 0.4 µM): 0.797
- relative viability (HCC-44; first compound 1.265 µM): 0.611
- relative viability (HCC-44; first compound 4 µM): 0.489
- relative viability (HCC-827; first compound 0.04 µM): 0.946
- relative viability (HCC-827; first compound 0.1265 µM): 0.917
- relative viability (HCC-827; first compound 0.4 µM): 0.94
- relative viability (HCC-827; first compound 1.265 µM): 0.831
- relative viability (HCC-827; first compound 4 µM): 0.392
- relative viability (LCLC-103H; first compound 0.04 µM): 0.987
- relative viability (LCLC-103H; first compound 0.1265 µM): 0.955
- relative viability (LCLC-103H; first compound 0.4 µM): 0.95
- relative viability (LCLC-103H; first compound 1.265 µM): 0.923
- relative viability (LCLC-103H; first compound 4 µM): 0.985
- relative viability (LCLC-97TM1; first compound 0.04 µM): 0.461
- relative viability (LCLC-97TM1; first compound 0.1265 µM): 0.379
- relative viability (LCLC-97TM1; first compound 0.4 µM): 0.359
- relative viability (LCLC-97TM1; first compound 1.265 µM): 0.23
- relative viability (LCLC-97TM1; first compound 4 µM): 0.239
- relative viability (NCI-H1355; first compound 0.04 µM): 1.19
- relative viability (NCI-H1355; first compound 0.1265 µM): 1.05
- relative viability (NCI-H1355; first compound 0.4 µM): 1.02
- relative viability (NCI-H1355; first compound 1.265 µM): 0.983
- relative viability (NCI-H1355; first compound 4 µM): 0.972
- relative viability (NCI-H1563; first compound 0.04 µM): 0.917
- relative viability (NCI-H1563; first compound 0.1265 µM): 0.88
- relative viability (NCI-H1563; first compound 0.4 µM): 0.832
- relative viability (NCI-H1563; first compound 1.265 µM): 0.806
- relative viability (NCI-H1563; first compound 4 µM): 0.854
- relative viability (NCI-H1651; first compound 0.04 µM): 0.866
- relative viability (NCI-H1651; first compound 0.1265 µM): 0.828
- relative viability (NCI-H1651; first compound 0.4 µM): 0.808
- relative viability (NCI-H1651; first compound 1.265 µM): 0.713
- relative viability (NCI-H1651; first compound 4 µM): 0.942
- relative viability (NCI-H1944; first compound 0.04 µM): 1.09
- relative viability (NCI-H1944; first compound 0.1265 µM): 1.13
- relative viability (NCI-H1944; first compound 0.4 µM): 1.09
- relative viability (NCI-H1944; first compound 1.265 µM): 0.82
- relative viability (NCI-H1944; first compound 4 µM): 1.06
- relative viability (NCI-H1993; first compound 0.04 µM): 0.988
- relative viability (NCI-H1993; first compound 0.1265 µM): 0.773
- relative viability (NCI-H1993; first compound 0.4 µM): 0.892
- relative viability (NCI-H1993; first compound 1.265 µM): 0.615
- relative viability (NCI-H1993; first compound 4 µM): 0.753
- relative viability (NCI-H2085; first compound 0.04 µM): 0.734
- relative viability (NCI-H2085; first compound 0.1265 µM): 0.856
- relative viability (NCI-H2085; first compound 0.4 µM): 0.873
- relative viability (NCI-H2085; first compound 1.265 µM): 0.694
- relative viability (NCI-H2085; first compound 4 µM): 0.63
- relative viability (NCI-H2087; first compound 0.04 µM): 0.758
- relative viability (NCI-H2087; first compound 0.1265 µM): 0.868
- relative viability (NCI-H2087; first compound 0.4 µM): 0.839
- relative viability (NCI-H2087; first compound 1.265 µM): 0.825
- relative viability (NCI-H2087; first compound 4 µM): 0.527
- relative viability (NCI-H23; first compound 0.04 µM): 0.542
- relative viability (NCI-H23; first compound 0.1265 µM): 0.43
- relative viability (NCI-H23; first compound 0.4 µM): 0.481
- relative viability (NCI-H23; first compound 1.265 µM): 0.471
- relative viability (NCI-H23; first compound 4 µM): 0.26
- relative viability (NCI-H2405; first compound 0.04 µM): 0.841
- relative viability (NCI-H2405; first compound 0.1265 µM): 0.821
- relative viability (NCI-H2405; first compound 0.4 µM): 0.796
- relative viability (NCI-H2405; first compound 1.265 µM): 0.599
- relative viability (NCI-H2405; first compound 4 µM): 0.901
- relative viability (NCI-H322M; first compound 0.04 µM): 0.978
- relative viability (NCI-H322M; first compound 0.1265 µM): 0.855
- relative viability (NCI-H322M; first compound 0.4 µM): 0.882
- relative viability (NCI-H322M; first compound 1.265 µM): 0.687
- relative viability (NCI-H322M; first compound 4 µM): 0.818
- relative viability (NCI-H520; first compound 0.04 µM): 0.907
- relative viability (NCI-H520; first compound 0.1265 µM): 0.704
- relative viability (NCI-H520; first compound 0.4 µM): 0.711
- relative viability (NCI-H520; first compound 1.265 µM): 0.762
- relative viability (NCI-H520; first compound 4 µM): 0.663
- relative viability (NCI-H650; first compound 0.04 µM): 0.812
- relative viability (NCI-H650; first compound 0.1265 µM): 0.739
- relative viability (NCI-H650; first compound 0.4 µM): 0.579
- relative viability (NCI-H650; first compound 1.265 µM): 0.519
- relative viability (NCI-H650; first compound 4 µM): 0.398
- relative viability (SK-MES-1; first compound 0.04 µM): 0.96
- relative viability (SK-MES-1; first compound 0.1265 µM): 0.988
- relative viability (SK-MES-1; first compound 0.4 µM): 1.01
- relative viability (SK-MES-1; first compound 1.265 µM): 0.978
- relative viability (SK-MES-1; first compound 4 µM): 0.923
- relative viability (UMC-11; first compound 0.04 µM): 0.652
- relative viability (UMC-11; first compound 0.1265 µM): 0.581
- relative viability (UMC-11; first compound 0.4 µM): 0.621
- relative viability (UMC-11; first compound 1.265 µM): 0.445
- relative viability (UMC-11; first compound 4 µM): 0.171
